# Values of other authors, collected in patent publication US20080014156A1, “PHOTOPROTECTANT COMPOSITION FOR PREVENTING SUNBURN AND SUN DAMAGE TO THE SKIN” (priority 2006, published 2008).
# Conditions: relative to vitamin E
smiles,measurement,value
CC1=C(/C=C/C(C)=C/C=C/C(C)=C/C=C/C=C(C)/C=C/C=C(C)/C=C/C2=C(C)C(=O)[C@@H](O)CC2(C)C)C(C)(C)C[C@H](O)C1=O [Astaxanthin],antioxidant effectiveness compared with vitamin E,up to 550 times
